A melting point compilation (Tetko et al.; mined from patent text by program, amines drawn as free bases though some values may be those of a salt)

Compound | melting point [°C]
CC=Cc1c(-c2ccc(C(C)(C)C)cc2)[nH]c2nccnc12 | 207 to 208
CC1(C)Oc2ccc([N+](=O)[O-])cc2C=C1CBr | 107
O=[N+]([O-])C(=Cc1ccoc1)C1=NCCN1Cc1ccc(Cl)nc1 | 175 to 176
Cc1nc(-n2cnn(Cc3ccc(F)cc3)c2=O)sc1C(N)=O | 232 to 233
Cc1nc2ncnn2c2c1c(O)c(O)n2C | 215 to 217
COc1ccc2c(c1)CCC1C2CCC2(C)C(=O)CC(C)(C(C)C)C12 (stereo not given) | 113 to 115
Cc1cccc(C)c1-n1cnc(OC(C)C(=O)O)n1 (stereo not given) | 178 to 180
NC(=O)c1ccc2c(c1)C(=O)N1CCC[C@H]1CO2 | 287 to 290
Cc1c(C)c2c(c(C)c1NC(=O)CC(C)(C)C)C(c1ccc(C(C)(C)O)cc1)CO2 (stereo not given) | 132 to 134
N#CCc1cccc2c(-c3ccc(F)cc3)onc12 | 158 to 160
CC(N)c1ccc(C(=O)O)cc1 (stereo not given) | > 300
CC(CO)(CO)NS(=O)(=O)c1cc([N+](=O)[O-])c(Cl)s1 | 133
CC(=O)Oc1cc(C)cc2c1C1=C(CCC(C)C1)C(C)(C)O2 (stereo not given) | 115 to 119
COC(=O)c1[nH]nc2c1C(C)Cc1cc(OC)ccc1-2 (stereo not given) | 163
CC1(C)COP(N(C2CC(C)(C)NC(C)(C)C2)C2CC(C)(C)NC(C)(C)C2)OC1 | 156
CN(C)CCCCC(=O)c1ccc2c(c1)Cc1cc(C(=O)CCCCN(C)C)ccc1-2 | 124 to 126
CCOC(=O)C(C#N)=Cc1cccc(C(F)(F)F)c1Cl | 50
O=c1c2ccccc2nnn1CCCN1CC=C(c2c[nH]c3ccccc23)CC1 | 189
O=C(/C=C1/c2ccccc2N(C(=O)c2ccc(NC(=O)c3ccccc3-c3ccccc3)cc2)CCC1(F)F)NCc1ccccc1 | 189 to 192
COC(=O)c1cccc2nc(SCCN3CCN(CC(=O)Nc4c(SC(C)C)cc(C)nc4SC(C)C)CC3)oc12 | 60 to 63
CN1CCN(C2=Nc3cc(Br)ccc3-n3ccc4cccc2c43)CC1 | 164 to 166
Cc1cc(C)c2c(c1)OCC2=O | 55 to 60
CCCCSc1ccc(C2CC(=O)C(C(=O)CC)=C(O)C2)cc1[N+](=O)[O-] (stereo not given) | 102
CC(C)(C)c1cc(-c2nn(CCC(N)=O)c3ncccc23)cc(C(C)(C)C)c1O | 154 to 157
CN1CC(OCC=C(Cl)Cl)(C(F)(F)F)c2cc(Cl)ccc2NC1=O (stereo not given) | 149 to 150
COc1nc(C)c(C)nc1NC(=S)N1CCN(c2cc(C)cc(C)c2)CC1 | 160 to 162
Cn1ncc2[nH]c3c(Br)cccc3c(=O)c21 | 287

Second part, the molecule after the results:

melting point [°C] | Compound
103 | CCCCCCCNC(=O)N(C)c1cccc(-c2ccc(C=C(OCC)C(=O)O)cc2OCCCC)c1
> 250 | N#Cc1cc(C2=Nc3cc(O)c(-c4ccccc4F)cc3NC(=O)C2)ccn1
94 to 98 | Cc1cc(C)n(C)c1C(=O)c1ccc(Cl)cc1
189 to 192 | O=c1[nH]cccc1-c1cccnc1
113 | CCN(CC)C(=O)c1cc2ccccc2c(-c2ccc(C)cc2)n1
248 to 250 | Nc1c(-c2cccc(Oc3ccccc3)c2)cnc2ncnn12
187 | Cc1c(NC(=O)c2ccc(CC(=O)c3ccccc3)cc2)ccc2cc(CN3CCCC3)cnc12
214 to 217 | CC(C)(COc1ccc(Cl)cc1)C(=O)C(Oc1ccc(Cl)cc1)n1ccnc1 (stereo not given)
75 to 78 | O=C(CBr)c1ccc(Cl)cc1OCc1ccccc1
184 to 186 | CCc1nc(/C=C/c2cn(-c3ccccc3)nc2O)c(C)s1
147 to 150 | CC1(C)OC(=O)C(C(c2ccccc2)c2c[nH]c3ccccc23)C(=O)O1 (stereo not given)
206 to 209 | O=C1Cc2c(cc3ccccc3c2Cl)C(c2ccccc2F)N1 (stereo not given)
288 | CCOc1ccc(-c2[nH]nc3c2C(=O)c2c(NC(C)=O)cccc2-3)cc1
